{"source": "patent US20070203159A1", "about": "“Purine compounds” (priority 2006, published 2007)", "data": [{"tested_on": "Mycobacterium tuberculosis H37Rv (ATCC 27294)", "assay": "Microplate Alamar Blue Assay (MABA): primary screening and MIC determination", "format": "cell-based", "details": "Mycobacterium tuberculosis; retest at lower concentrations in the MABA; read-out: MIC", "units": {"MIC": "mg/L"}, "values": [{"compound": "Clc1ccc(Cn2cnc3c(-c4ccco4)ncnc32)cc1", "note": "[Example 27, 9-(4-Chlorophenylmethyl)-6-(2-furyl)-9H-purine]", "MIC": 6.25}, {"compound": "Clc1ccc(Cn2cnc3c(-c4ccco4)ncnc32)cc1Cl", "note": "[Example 28, 9-(3,4-Dichlorophenylmethyl)-6-(2-furyl)-9H-purine]", "MIC": 6.25}, {"compound": "Fc1ccc(Cn2cnc3c(-c4ccco4)ncnc32)cc1", "note": "[Example 29, 9-(4-Fluorophenylmethyl)-6-(2-furyl)-9H-purine]", "MIC": 6.25}, {"compound": "Cc1ccc(Cn2cnc3c(-c4ccco4)ncnc32)cc1", "note": "[Example 31, 6-(2-Furyl)-9-(4-methylphenylmethyl)-9H-purine]", "MIC": 3.13}, {"compound": "CC(C)(C)c1ccc(Cn2cnc3c(-c4ccco4)ncnc32)cc1", "note": "[Example 32, 9-(4-tert-Butylphenylmethyl)-6-(2-furyl)-9H-purine]", "MIC": 12.5}, {"compound": "COc1cccc(Cn2cnc3c(-c4ccco4)ncnc32)c1", "note": "[Example 34, 6-(2-Furyl)-9-(3-methoxyphenylmethyl)-9H-purine]", "MIC": 6.25}, {"compound": "COc1ccc(Cn2cnc3c(-c4ccco4)ncnc32)cc1C", "note": "[Example 35, 6-(2-Furyl)-9-(4-methoxy-3-methylphenylmethyl)-9H-purine]", "MIC": 0.78}, {"compound": "CCOc1ccc(Cn2cnc3c(-c4ccco4)ncnc32)cc1", "note": "[Example 39, 9-(4-Ethoxyphenylmethyl)-6-(2-furyl)-9H-purine]", "MIC": 3.13}, {"compound": "c1ccc(COc2ccc(Cn3cnc4c(-c5ccco5)ncnc43)cc2)cc1", "note": "[Example 40, 9-(4-Benzyloxyphenylmethyl)-6-(2-furyl)-9H-purine]", "MIC": 1.56}, {"compound": "Clc1ccc(Cn2cnc3c(-c4ccco4)nc(Cl)nc32)cc1", "note": "[Example 46, 2-Chloro-9-(4-chlorophenylmethyl)-6-(2-furyl)-9H-purine]", "MIC": 1.56}]}, {"tested_on": "Mycobacterium tuberculosis H37Rv (ATCC 27294)", "assay": "Microplate Alamar Blue Assay (MABA): primary screening and MIC determination", "format": "cell-based", "details": "retest at lower concentrations in the MABA", "units": {"MIC": "mg/L"}, "values": [{"compound": "2-Chloro-6-(2-furyl)-9-(4-methyloxyphenylmethyl)-9H-purine [Example 50]", "MIC": 0.78}, {"compound": "2-Cyclopentenyl-6-(2-furyl)-9-(4-methoxyphenylmethyl)-9H-purine [Example 81]", "MIC": 6.25}]}, {"tested_on": "not given", "assay": "not given", "details": "not given", "values": [{"compound": "COc1ccc(Cn2c(Cl)nc3c(-c4ccc(Cl)o4)ncnc32)cc1", "melting point": "166 to 168 °C"}, {"compound": "CCSc1nc(-c2ccco2)c2ncn(Cc3ccc(OC)cc3)c2n1", "melting point": "116 to 117 °C"}, {"compound": "CCCOc1nc(-c2ccco2)c2ncn(Cc3ccc(OC)cc3)c2n1", "melting point": "119 °C"}, {"compound": "COc1ccc(Cn2cnc3c(-c4ccco4)nc(OC(C)C)nc32)cc1", "melting point": "145 to 146 °C"}, {"compound": "CCCCOc1nc(-c2ccco2)c2ncn(Cc3ccc(OC)cc3)c2n1", "melting point": "113 °C"}, {"compound": "COc1ccc(Cn2cnc3c(-c4ccco4)nc(OCc4ccccc4)nc32)cc1", "melting point": "122 °C"}, {"compound": "COc1ccc(Cn2cnc3c(-c4ccco4)nc(I)nc32)cc1", "melting point": "145 to 148 °C"}, {"compound": "COc1ccc(Cn2cnc3c(-c4ccco4)nc(NC(C)=O)nc32)cc1", "melting point": "167 to 168 °C"}, {"compound": "COc1ccc(Cn2cnc3c(-c4ccco4)nc(N(C(C)=O)C(C)=O)nc32)cc1", "melting point": "187 to 189 °C"}, {"compound": "CNc1nc(-c2ccco2)c2ncn(Cc3ccc(OC)cc3)c2n1", "melting point": "144 to 145 °C"}, {"compound": "COc1ccc(Cn2cnc3c(-c4ccco4)nc(N(C)C)nc32)cc1", "melting point": "163 to 164 °C"}, {"compound": "CCOc1nc(-c2ccco2)c2ncn(Cc3ccc(OC)cc3)c2n1", "melting point": "137 to 138 °C"}, {"compound": "CC#Cc1nc(-c2ccco2)c2ncn(Cc3ccc(OC)cc3)c2n1", "melting point": "158 to 160 °C"}, {"compound": "Clc1ccc(Cn2cnc3c(-c4ccco4)ncnc32)cc1", "note": "[Example 27, 9-(4-Chlorophenylmethyl)-6-(2-furyl)-9H-purine]", "melting point": "156 to 159 °C"}, {"compound": "Clc1ccc(Cn2cnc3c(-c4ccco4)ncnc32)cc1Cl", "note": "[Example 28, 9-(3,4-Dichlorophenylmethyl)-6-(2-furyl)-9H-purine]", "melting point": "183 to 185 °C"}, {"compound": "Fc1ccc(Cn2cnc3c(-c4ccco4)ncnc32)cc1", "note": "[Example 29, 9-(4-Fluorophenylmethyl)-6-(2-furyl)-9H-purine]", "melting point": "162 to 164 °C"}, {"compound": "FC(F)(F)c1ccc(Cn2cnc3c(-c4ccco4)ncnc32)cc1", "note": "[Example 30, 6-(2-Furyl)-9-(4-trifluoromethylphenylmethyl)-9H-purine]", "melting point": "159 to 161 °C"}, {"compound": "Cc1ccc(Cn2cnc3c(-c4ccco4)ncnc32)cc1", "note": "[Example 31, 6-(2-Furyl)-9-(4-methylphenylmethyl)-9H-purine]", "melting point": "166 to 167 °C"}, {"compound": "CC(C)(C)c1ccc(Cn2cnc3c(-c4ccco4)ncnc32)cc1", "note": "[Example 32, 9-(4-tert-Butylphenylmethyl)-6-(2-furyl)-9H-purine]", "melting point": "185 to 187 °C"}, {"compound": "COc1cccc(Cn2cnc3c(-c4ccco4)ncnc32)c1", "note": "[Example 34, 6-(2-Furyl)-9-(3-methoxyphenylmethyl)-9H-purine]", "melting point": "138 to 139 °C"}, {"compound": "COc1ccc(Cn2cnc3c(-c4ccco4)ncnc32)cc1C", "note": "[Example 35, 6-(2-Furyl)-9-(4-methoxy-3-methylphenylmethyl)-9H-purine]", "melting point": "169 to 170 °C"}, {"compound": "COc1cc(Cn2cnc3c(-c4ccco4)ncnc32)cc(OC)c1OC", "note": "[Example 36, 6-(2-Furyl)-9-(3,4,5-trimethoxyphenylmethyl)-9H-purine]", "melting point": "195 to 196 °C"}, {"compound": "FC(F)(F)Oc1ccc(Cn2cnc3c(-c4ccco4)ncnc32)cc1", "note": "[Example 37, 6-(2-Furyl)-9-(4-trifluoromethoxyphenylmethyl)-9H-purine]", "melting point": "146 to 147 °C"}, {"compound": "FC(F)(F)Oc1cccc(Cn2cnc3c(-c4ccco4)ncnc32)c1", "note": "[Example 38, 6-(2-Furyl)-9-(3-trifluoromethoxyphenylmethyl)-9H-purine]", "melting point": "133 to 135 °C"}, {"compound": "CCOc1ccc(Cn2cnc3c(-c4ccco4)ncnc32)cc1", "note": "[Example 39, 9-(4-Ethoxyphenylmethyl)-6-(2-furyl)-9H-purine]", "melting point": "165 to 166 °C"}, {"compound": "c1ccc(COc2ccc(Cn3cnc4c(-c5ccco5)ncnc43)cc2)cc1", "note": "[Example 40, 9-(4-Benzyloxyphenylmethyl)-6-(2-furyl)-9H-purine]", "melting point": "145 to 146 °C"}, {"compound": "Oc1ccc(Cn2cnc3c(-c4ccco4)ncnc32)cc1", "note": "[Example 41, 6-(2-Furyl)-9-(4-hydroxyphenylmethyl)-9H-purine]", "melting point": "231 to 233 °C"}, {"compound": "CC(=O)Nc1ccc(Cn2cnc3c(-c4ccco4)ncnc32)cc1", "note": "[Example 44, 9-(4-Acetamidophenylmethyl)-6-(2-furyl)-9H-purine]", "melting point": "278 to 280 °C"}, {"compound": "Nc1ccc(Cn2cnc3c(-c4ccco4)ncnc32)cc1", "note": "[Example 45, 9-(4-Aminophenylmethyl)-6-(2-furyl)-9H-purine]", "melting point": "195 to 197 °C"}, {"compound": "COc1ccc(Cn2cnc3c(-c4ccco4)nc(F)nc32)cc1", "note": "[Example 57, 2-Fluoro-6-(2-furyl)-9-(4-methoxyphenylmethyl)-9H-purine]", "melting point": "210 to 215 °C"}, {"compound": "COc1ccc(Cn2cnc3c(-c4ccco4)nc(N)nc32)cc1", "note": "[Example 61, 2-Amino-6-(2-furyl)-9-(4-methoxyphenylmethyl)-9H-purine]", "melting point": "235 to 237 °C (dec.)"}, {"compound": "COc1ccc(CNc2nc(-c3ccco3)c3ncn(Cc4ccc(OC)cc4)c3n2)cc1", "note": "[Example 65, 6-(2-Furyl)-2-(4-methoxyphenylmethylamino)-9-(4-methoxyphenylmethyl)-9H-purine]", "melting point": "153 to 154 °C"}, {"compound": "COc1ccc(Cn2cnc3c(-c4ccco4)nc(S(C)(=O)=O)nc32)cc1", "note": "[Example 70, 6-(2-Furyl)-9-(4-methoxyphenylmethyl)-2-methylsulfonyl-9H-purine]", "melting point": "184 to 185 °C"}, {"compound": "COc1ccc(Cn2cnc3c(-c4ccco4)nc([N+](=O)[O-])nc32)cc1", "note": "[Example 72, 6-(2-Furyl)-9-(4-methoxyphenylmethyl)-2-nitro-9H-purine]", "melting point": "182 to 183 °C"}, {"compound": "COc1ccc(Cn2cnc3c(-c4ccco4)nc(OC)nc32)cc1", "note": "[Example 74, 6-(2-Furyl)-2-methoxy-9-(4-methoxyphenylmethyl)-9H-purine]", "melting point": "167 to 169 °C"}, {"compound": "COc1ccc(Cn2cnc3c(-c4ccco4)nc(C)nc32)cc1", "note": "[Example 76, 6-(2-Furyl)-9-(4-methoxyphenylmethyl)-2-methyl-9H-purine]", "melting point": "127 to 130 °C"}, {"compound": "CCc1nc(-c2ccco2)c2ncn(Cc3ccc(OC)cc3)c2n1", "note": "[Example 77, 2-Ethyl-6-(2-furyl)-9-(4-methoxyphenylmethyl)-9H-purine]", "melting point": "119 to 120 °C"}, {"compound": "COc1ccc(Cn2cnc3c(-c4ccco4)nc(C(C)C)nc32)cc1", "note": "[Example 78, 6-(2-Furyl)-9-(4-methoxyphenylmethyl)-2-(1-methylethyl)-9H-purine]", "melting point": "123 °C"}, {"compound": "CCCCc1nc(-c2ccco2)c2ncn(Cc3ccc(OC)cc3)c2n1", "note": "[Example 79, 2-n-Butyl-6-(2-furyl)-9-(4-methoxyphenylmethyl)-9H-purine]", "melting point": "103 °C"}, {"compound": "COc1ccc(Cn2cnc3c(-c4ccco4)nc(C4CC4)nc32)cc1", "note": "[Example 80, 2-Cyclopropyl-6-(2-furyl)-9-(4-methoxyphenylmethyl)-9H-purine]", "melting point": "115 to 116 °C"}, {"compound": "C=Cc1nc(-c2ccco2)c2ncn(Cc3ccc(OC)cc3)c2n1", "note": "[Example 82, 2-Ethenyl-6-(2-furyl)-9-(4-methoxyphenylmethyl)-9H-purine]", "melting point": "94 to 95 °C"}, {"compound": "C=C(OCC)c1nc(-c2ccco2)c2ncn(Cc3ccc(OC)cc3)c2n1", "note": "[Example 83, 2-(1-Ethoxyvinyl)-6-(2-furyl)-9-(4-methoxyphenylmethyl)-9H-purine]", "melting point": "144 to 145 °C"}, {"compound": "COc1ccc(Cn2cnc3c(-c4ccco4)nc(-c4ccccc4)nc32)cc1", "note": "[Example 84, 6-(2-Furyl)-9-(4-methoxyphenylmethyl)-2-phenyl-9H-purine]", "melting point": "140 to 142 °C"}, {"compound": "COc1ccc(Cn2cnc3c(-c4ccco4)nc(C(C)=O)nc32)cc1", "note": "[Example 86, 2-Acetyl-6-(2-furyl)-9-(4-methoxyphenylmethyl)-9H-purine]", "melting point": "166 to 167 °C"}, {"compound": "COc1ccc(Cn2cnc3c(-c4ccco4)nc(C#N)nc32)cc1", "note": "[Example 87, 6-(2-Furyl)-9-(4-methoxyphenylmethyl)-9H-purine-2-carbonitrile]", "melting point": "205 to 207 °C"}, {"compound": "C#Cc1nc(-c2ccco2)c2ncn(Cc3ccc(OC)cc3)c2n1", "note": "[Example 89, 2-Ethynyl-6-(2-furyl)-9-(4-methoxyphenylmethyl)-9H-purine]", "melting point": "155 °C"}, {"compound": "COc1ccc(Cn2cnc3c(-c4ccco4)nc(C(F)(F)F)nc32)cc1", "note": "[Example 94, 6-(2-Furyl)-9-(4-methoxyphenylmethyl)-2-trifluoromethyl-9H-purine]", "melting point": "149 to 150 °C"}, {"compound": "COc1ccc(Cn2c(Cl)nc3c(-c4ccco4)ncnc32)cc1", "note": "[Example 99, 8-Chloro-6-(2-furyl)-9-(4-methoxyphenylmethyl)-9H-purine]", "melting point": "156 to 157 °C"}, {"compound": "COc1ccc(Cn2c(Br)nc3c(-c4ccco4)ncnc32)cc1", "note": "[Example 101, 8-Bromo-6-(2-furyl)-9-(4-methoxyphenylmethyl)-9H-purine]", "melting point": "150 to 151 °C"}, {"compound": "COc1ccc(Cn2c(-c3ccco3)nc3c(-c4ccco4)ncnc32)cc1", "note": "[Example 103, 6,8-Di(2-furyl)-9-(4-methoxyphenylmethyl)-9H-purine]", "melting point": "134 to 136 °C"}, {"compound": "COc1ccc(Cn2c(OC)nc3c(-c4ccco4)ncnc32)cc1", "note": "[Example 104, 6-(2-Furyl)-8-methoxy-9-(4-methoxyphenylmethyl)-9H-purine]", "melting point": "143 to 144 °C"}, {"compound": "COc1ccc(Cn2c(O)nc3c(-c4ccco4)ncnc32)cc1", "note": "[Example 105, 6-(2-Furyl)-8-hydroxy-9-(4-methoxyphenylmethyl)-9H-purine]", "melting point": "249 to 251 °C"}]}]}
